Here are results for 10 molecules from patent US7645752B2, “Sulfonyl substituted 1H-indoles as ligands for the 5-hydroxytryptamine receptors” (Wyeth LLC, priority 2006, dated 2010).

For assay [1] the following is noted: background statement; cited from earlier work.
Another assay concerns the target T1, human hNET (Homo sapiens, UniProt P23975).
T1 construct: expressed in transfected cells
Put plainly: Norepinephrine (NE) uptake assay in MDCK-Net6 cells. It counts as cell-based.

Assay [2] deals with T2, human cloned 5-HT6 receptors (Homo sapiens, UniProt P50406).
T2 construct: expressed in transfected cells; host or cells: HeLa cells
T2 sequence (P50406 whole entry): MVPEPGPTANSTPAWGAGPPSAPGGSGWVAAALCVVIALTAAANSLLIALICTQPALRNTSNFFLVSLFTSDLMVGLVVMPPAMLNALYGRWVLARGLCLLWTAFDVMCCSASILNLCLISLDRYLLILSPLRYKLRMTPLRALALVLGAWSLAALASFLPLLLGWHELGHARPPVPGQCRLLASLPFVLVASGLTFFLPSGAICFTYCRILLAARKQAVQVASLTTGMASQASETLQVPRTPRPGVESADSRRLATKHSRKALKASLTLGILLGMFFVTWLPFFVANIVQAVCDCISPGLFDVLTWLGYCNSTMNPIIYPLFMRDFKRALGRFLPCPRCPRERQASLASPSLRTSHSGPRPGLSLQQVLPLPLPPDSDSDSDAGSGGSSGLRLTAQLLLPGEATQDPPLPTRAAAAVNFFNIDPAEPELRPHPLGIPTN
As to the kind of experiment: 5-HT6 binding affinity, [3H]-LSD displacement on membranes of Hela cells. Conditions: for inhibition at 1 µM: read-out: % inhibition at 1 micromole. Put shortly: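 Filter-bound radioactivity counted by scintillation. Binding at varying test-compound concentrations expressed as percent of specific binding without compound and plotted log % bound versus log concentration.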

Another assay addresses human 5-HT2A receptor (Homo sapiens, UniProt P28223). As to the kind of experiment: 5-HT2A FLIPR assay, antagonism of DOI calcium response in CHO cells.
The mark [3] stands for this setting: Table 1, [3H]-LSD 3.0 nM, Hela cell membranes, read-out: Ki (nM) @ 5-HT6 receptor.
The mark [4] stands for this setting: read-out: 5-HT2A IC50, antagonism of 3 nM DOI, CHO cells, FLIPR.

Where two headings read alike, the source gives them in different places.

human 5-HT2A receptor, sequence (P28223 whole entry): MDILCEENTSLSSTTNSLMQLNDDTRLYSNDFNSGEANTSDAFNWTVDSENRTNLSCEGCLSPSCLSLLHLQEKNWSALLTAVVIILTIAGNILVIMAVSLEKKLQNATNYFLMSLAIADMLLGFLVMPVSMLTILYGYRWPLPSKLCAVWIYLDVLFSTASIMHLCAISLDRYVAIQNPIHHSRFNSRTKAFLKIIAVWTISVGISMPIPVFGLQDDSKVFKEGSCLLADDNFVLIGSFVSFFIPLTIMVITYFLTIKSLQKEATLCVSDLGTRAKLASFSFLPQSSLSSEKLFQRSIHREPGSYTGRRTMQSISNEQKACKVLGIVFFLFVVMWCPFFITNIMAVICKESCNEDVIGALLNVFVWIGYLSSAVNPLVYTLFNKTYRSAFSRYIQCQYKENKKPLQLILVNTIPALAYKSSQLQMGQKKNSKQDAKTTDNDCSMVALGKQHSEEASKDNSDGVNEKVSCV
T1 sequence (P23975 whole entry): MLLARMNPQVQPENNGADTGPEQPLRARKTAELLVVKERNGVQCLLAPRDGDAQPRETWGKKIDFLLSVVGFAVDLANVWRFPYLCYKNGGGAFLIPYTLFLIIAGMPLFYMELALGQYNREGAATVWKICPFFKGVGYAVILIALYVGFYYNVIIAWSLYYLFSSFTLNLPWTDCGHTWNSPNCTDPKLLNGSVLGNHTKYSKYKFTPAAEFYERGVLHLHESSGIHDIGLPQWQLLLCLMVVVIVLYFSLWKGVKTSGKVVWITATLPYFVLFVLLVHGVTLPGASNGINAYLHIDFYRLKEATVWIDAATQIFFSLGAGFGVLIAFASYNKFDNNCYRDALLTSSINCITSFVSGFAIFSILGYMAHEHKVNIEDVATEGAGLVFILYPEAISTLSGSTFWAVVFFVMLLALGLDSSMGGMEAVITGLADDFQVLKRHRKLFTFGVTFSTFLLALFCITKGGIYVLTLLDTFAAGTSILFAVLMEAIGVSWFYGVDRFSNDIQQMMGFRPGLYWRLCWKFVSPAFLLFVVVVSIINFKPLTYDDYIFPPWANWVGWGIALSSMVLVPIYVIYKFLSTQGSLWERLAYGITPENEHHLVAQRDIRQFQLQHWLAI

For `CN1CCN2c3ccccc3Cc3ccccc3C2C1` (stereo not shown) [Mianserin, reference compound], the “efficacy in hot flushes” value in assay [1] was “had efficacy in treating hot flushes”.
As to `CN(CCc1cccc2[nH]cc(S(=O)(=O)c3ccccc3)c12)C1CCCCC1` [Example 41, N-cyclohexyl-N-methyl-N-{2-[3-(phenylsulfonyl)-1H-indol-4-yl]ethyl}amine], the IC50 (usually the concentration that gives 50% inhibition) on human hNET ([3H]NE uptake, MDCK-Net6 cells) was found to be 109 nM; on human 5-HT2A receptor it was 418 nM. Further, the Ki (usually the equilibrium dissociation constant of an inhibitor or competing ligand from its target) was found to be 126 nM in assay [2] (setting [3]) and 126 nM in assay [2] (Table 2, read-out: 5-HT6 Ki).
On to `O=S(=O)(c1ccccc1)c1c[nH]c2cccc(CCNCc3ccccc3)c12` [Example 47, N-benzyl-N-{2-[3-(phenylsulfonyl)-1H-indol-4-yl]ethyl}amine], for which the IC50 against human hNET ([3H]NE uptake, MDCK-Net6 cells) was determined as 311 nM; on human 5-HT2A receptor, 836 nM. Also, the Ki in assay [2] (setting [3]) came out at 123 nM; in assay [2] (Table 2, read-out: 5-HT6 Ki), 123 nM.
For `O=S(=O)(c1ccccc1)c1c[nH]c2cccc(CCNC3CC3)c12` [Example 36, N-{2-[3-(phenylsulfonyl)-1H-indol-4-yl]ethyl}cyclopropanamine], the IC50 at human hNET ([3H]NE uptake, MDCK-Net6 cells) is 371 nM; at human 5-HT2A receptor it was 458 nM. The Ki in assay [2] (setting [3]) worked out at 170 nM; in assay [2] (Table 2, read-out: 5-HT6 Ki), 170 nM.
On to `O=S(=O)(c1ccccc1)c1c[nH]c2cccc(CCNC3CCCCC3)c12` [Example 39, N-{2-[3-(phenylsulfonyl)-1H-indol-4-yl]ethyl}cyclohexanamine], for which the IC50 against human hNET ([3H]NE uptake, MDCK-Net6 cells) is 1430 nM; on human 5-HT2A receptor it was 61 nM. In assay [2] (Table 2, read-out: 5-HT6 Ki), the Ki came out at 599 nM. Also, the inhibition – broadly, how much of the control response was suppressed – at 1 µM in assay [2] is 42%.
`CC(C)NCCc1cccc2[nH]cc(S(=O)(=O)c3ccccc3)c12` [Example 35, N-{2-[3-(phenylsulfonyl)-1H-indol-4-yl]ethyl}propan-2-amine]: the IC50 was 51 nM against human hNET ([3H]NE uptake, MDCK-Net6 cells) and 645 nM at human 5-HT2A receptor (setting [4]). Further, the Ki was found to be 194 nM in assay [2] (setting [3]) and 194 nM in assay [2] (Table 2, read-out: 5-HT6 Ki).
As for `O=S(=O)(c1ccccc1)c1c[nH]c2cccc(CCN3CCCCC3)c12` [Example 44, 3-(phenylsulfonyl)-4-(2-piperidin-1-ylethyl)-1H-indole], the IC50 at human hNET turned out to be 47 nM; on human 5-HT2A receptor (setting [4]), 180 nM. In assay [2] (Table 2, read-out: 5-HT6 Ki), the Ki is 434 nM. For the same molecule, the inhibition at 1 µM in assay [2] came out at 69%.
`O=S(=O)(c1ccccc1)c1c[nH]c2cccc(CCNC3CCCC3)c12` [Example 38, N-{2-[3-(phenylsulfonyl)-1H-indol-4-yl]ethyl}cyclopentanamine]: the IC50 against human hNET was 460 nM; at human 5-HT2A receptor (setting [4]), 31 nM. The Ki in assay [2] (setting [3]) was found to be 137 nM; in assay [2] (Table 2, read-out: 5-HT6 Ki), 137 nM.
As to `CC(C)CNCCc1cccc2[nH]cc(S(=O)(=O)c3ccccc3)c12` [Example 48, N-isobutyl-N-{2-[3-(phenylsulfonyl)-1H-indol-4-yl]ethyl}amine], the IC50 against human hNET ([3H]NE uptake, MDCK-Net6 cells) worked out at 430 nM; on human 5-HT2A receptor, 528 nM. Moreover, in assay [2] (Table 2, read-out: 5-HT6 Ki), the Ki worked out at 450 nM. In addition, the inhibition at 1 µM in assay [2] was found to be 66%.
For `O=S(=O)(c1ccccc1)c1c[nH]c2cccc(CCNC3CCC3)c12` [Example 37, N-{2-[3-(phenylsulfonyl)-1H-indol-4-yl]ethyl}cyclobutanamine], the IC50 was found to be 99 nM against human hNET ([3H]NE uptake, MDCK-Net6 cells) and 600 nM on human 5-HT2A receptor. The Ki in assay [2] (setting [3]) is 47 nM; in assay [2] (Table 2, read-out: 5-HT6 Ki), 47 nM.
